biological target: ROCK2 (Homo sapiens, UniProt O75116); test: ROCK2 kinase inhibition assay (LABCHIP 3000 Reader, FITC peptide substrate);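 note: rho kinase reaction read by separating phosphorylated from unphosphorylated peptide on chip, with inhibition of kinase activity computed per concentration across a dose-response series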
Sequence (O75116 whole entry, species assumed): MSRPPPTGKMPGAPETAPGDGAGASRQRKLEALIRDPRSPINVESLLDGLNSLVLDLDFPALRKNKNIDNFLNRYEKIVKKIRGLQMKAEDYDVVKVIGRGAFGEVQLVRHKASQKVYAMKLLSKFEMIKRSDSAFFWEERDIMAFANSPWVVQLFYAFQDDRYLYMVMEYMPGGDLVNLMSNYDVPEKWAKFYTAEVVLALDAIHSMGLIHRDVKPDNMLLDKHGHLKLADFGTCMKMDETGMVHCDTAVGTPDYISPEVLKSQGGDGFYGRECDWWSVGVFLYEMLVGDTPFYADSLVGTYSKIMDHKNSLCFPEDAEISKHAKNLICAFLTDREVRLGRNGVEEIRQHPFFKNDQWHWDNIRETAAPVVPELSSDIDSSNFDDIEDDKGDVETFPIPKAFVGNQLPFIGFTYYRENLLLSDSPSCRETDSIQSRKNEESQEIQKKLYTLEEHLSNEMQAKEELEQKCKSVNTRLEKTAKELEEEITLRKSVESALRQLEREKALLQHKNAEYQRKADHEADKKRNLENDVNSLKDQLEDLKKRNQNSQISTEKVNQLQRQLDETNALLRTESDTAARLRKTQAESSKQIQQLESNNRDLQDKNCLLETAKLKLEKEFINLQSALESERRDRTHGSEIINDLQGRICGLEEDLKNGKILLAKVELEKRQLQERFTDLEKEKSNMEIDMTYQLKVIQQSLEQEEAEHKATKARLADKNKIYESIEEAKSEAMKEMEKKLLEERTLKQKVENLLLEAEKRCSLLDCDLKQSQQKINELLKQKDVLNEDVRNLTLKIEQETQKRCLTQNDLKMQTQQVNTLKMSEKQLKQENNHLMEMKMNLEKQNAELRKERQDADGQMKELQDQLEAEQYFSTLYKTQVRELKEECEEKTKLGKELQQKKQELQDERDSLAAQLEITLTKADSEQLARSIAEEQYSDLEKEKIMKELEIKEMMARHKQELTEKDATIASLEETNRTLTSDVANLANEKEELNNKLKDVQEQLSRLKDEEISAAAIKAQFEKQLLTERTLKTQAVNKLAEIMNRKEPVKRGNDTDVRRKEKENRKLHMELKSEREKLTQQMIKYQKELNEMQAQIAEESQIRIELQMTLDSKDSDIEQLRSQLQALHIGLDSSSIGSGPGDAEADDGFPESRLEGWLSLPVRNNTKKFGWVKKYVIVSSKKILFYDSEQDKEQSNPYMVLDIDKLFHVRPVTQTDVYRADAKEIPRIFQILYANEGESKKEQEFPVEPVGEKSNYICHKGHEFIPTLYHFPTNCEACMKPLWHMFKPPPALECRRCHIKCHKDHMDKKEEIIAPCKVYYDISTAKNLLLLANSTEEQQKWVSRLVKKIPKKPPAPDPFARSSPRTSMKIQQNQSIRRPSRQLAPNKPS

Row | Compound | IC50
1 | CC(C)(O)COc1ccc2c(C(=O)NC3CC4(C3)CC(Oc3cc(/C=C/CCO)ccc3C(N)=O)C4)cnn2c1 (stereo not drawn) [Example 290, (E)-N-(6-(2-carbamoyl-5-(4-hydroxybut-1-en-1-yl)phenoxy)spiro[3.3]heptan-2-yl)-6-(2-hydroxy-2-methylpropoxy)pyrazolo[1,5-a]pyridine-3-carboxamide] | 5 to 50 nM
2 | CC(C)(O)COc1ccc2c(C(=O)NC3CC4(C3)CC(Oc3cc(-c5cccc(/C=C/C(=O)O)c5)ccc3C(N)=O)C4)cnn2c1 (stereo not drawn) [Example 291, (E)-3-(4′-carbamoyl-3′-((6-(6-(2-hydroxy-2-methylpropoxy)pyrazolo[1,5-a]pyridine-3-carboxamido)spiro[3.3]heptan-2-yl)oxy)-[1,1′-biphenyl]-3-yl)acrylic acid] | 5 to 50 nM
3 | COCCNC(=O)c1cccc(-c2ccc(C(N)=O)c(OC3CC4(CC(NC(=O)c5cnn6cc(OCC(C)(C)O)ccc56)C4)C3)c2)c1 (stereo not drawn) [Example 293, 3′-((6-(6-(2-hydroxy-2-methylpropoxy)pyrazolo[1,5-a]pyridine-3-carboxamido)spiro[3.3]heptan-2-yl)oxy)-N3-(2-methoxyethyl)-[1,1′-biphenyl]-3,4′-dicarboxamide] | 5 to 50 nM
4 | CC(C)(O)COc1ccc2c(C(=O)NC3CC4(C3)CC(Oc3cc(-c5cccc(C(=O)N6CCOCC6)c5)ccc3C(N)=O)C4)cnn2c1 (stereo not drawn) [Example 294, N-(6-((4-carbamoyl-3′-(morpholine-4-carbonyl)-[1,1′-biphenyl]-3-yl)oxy)spiro[3.3]heptan-2-yl)-6-(2-hydroxy-2-methylpropoxy)pyrazolo[1,5-a]pyridine-3-carboxamide] | 5 to 50 nM
5 | CNC(=O)c1cc(-c2ccc(C(N)=O)c(OC3CC4(CC(NC(=O)c5cnn6cc(OCC(C)(C)O)ccc56)C4)C3)c2)ccc1F (stereo not drawn) [Example 295, 4-fluoro-3′-((6-(6-(2-hydroxy-2-methylpropoxy)pyrazolo[1,5-a]pyridine-3-carboxamido)spiro[3.3]heptan-2-yl)oxy)-N3-methyl-[1,1′-biphenyl]-3,4′-dicarboxamide] | 5 to 50 nM
6 | CC(C)(O)COc1ccc2c(C(=O)NC3CC4(C3)CC(Oc3cc(-c5cccc(C(=O)O)c5)ccc3C(N)=O)C4)cnn2c1 (stereo not drawn) [Example 296, 4′-carbamoyl-3′-((6-(6-(2-hydroxy-2-methylpropoxy)pyrazolo[1,5-a]pyridine-3-carboxamido)spiro[3.3]heptan-2-yl)oxy)-[1,1′-biphenyl]-3-carboxylic acid] | 5 to 50 nM
7 | CC(C)(O)COc1ccc2c(C(=O)NC3CC4(C3)CC(Oc3cc(-c5ccc(F)c(-c6nnn[nH]6)c5)ccc3C(N)=O)C4)cnn2c1 (stereo not drawn) [Example 299, N-(6-((4-carbamoyl-4′-fluoro-3′-(1H-tetrazol-5-yl)-[1,1′-biphenyl]-3-yl)oxy)spiro[3.3]heptan-2-yl)-6-(2-hydroxy-2-methylpropoxy)pyrazolo[1,5-a]pyridine-3-carboxamide] | 5 to 50 nM
8 | CC(C)(O)COc1ccc2c(C(=O)NC3CC4(C3)CC(Oc3cc(C5CCNC5)ccc3C(N)=O)C4)cnn2c1 (stereo not drawn) [Example 301, N-(6-(2-carbamoyl-5-(pyrrolidin-3-yl)phenoxy)spiro[3.3]heptan-2-yl)-6-(2-hydroxy-2-methylpropoxy)pyrazolo[1,5-a]pyridine-3-carboxamide] | 5 to 50 nM
9 | NC(=O)c1ccccc1O[C@H]1CC2(C[C@H](NC(=O)c3cnn4ccccc34)C2)C1 (stereo partly drawn) [Example 303, N-((aR)-6-(2-carbamoylphenoxy)spiro[3.3]heptan-2-yl)pyrazolo[1,5-a]pyridine-3-carboxamide] | 50 to 250 nM
10 | CC(C)(O)COc1ccc2c(C(=O)NC3CC4(C3)CC(Oc3cc(CC5CCNC5)ccc3C(N)=O)C4)cnn2c1 (stereo not drawn) [Example 304, N-(6-(2-carbamoyl-5-(pyrrolidin-3-ylmethyl)phenoxy)spiro[3.3]heptan-2-yl)-6-(2-hydroxy-2-methylpropoxy)pyrazolo[1,5-a]pyridine-3-carboxamide] | 5 to 50 nM
11 | CC(C)(O)COc1ccc2c(C(=O)NC3CC4(C3)CC(Oc3nc(OCCN)ncc3C(N)=O)C4)cnn2c1C1CC1 (stereo not drawn) [Example 306, N-(6-((2-(2-aminoethoxy)-5-carbamoylpyrimidin-4-yl)oxy)spiro[3.3]heptan-2-yl)-7-cyclopropyl-6-(2-hydroxy-2-methylpropoxy)pyrazolo[1,5-a]pyridine-3-carboxamide] | 50 to 250 nM
12 | [H][C@]1(Oc2ncccc2C(N)=O)C[C@@]2(C[C@H](NC(=O)c3cnn4c(Br)c(OCC(C)(F)F)ccc34)C2)C1 (stereo partly drawn) [Example 307, 7-bromo-N-((aR)-6-((3-carbamoylpyridin-2-yl)oxy)spiro[3.3]heptan-2-yl)-6-(2,2-difluoropropoxy)pyrazolo[1,5-a]pyridine-3-carboxamide] | 5 to 50 nM
13 | NC(=O)c1cccnc1O[C@H]1CC2(C[C@H](NC(=O)c3cnn4ccccc34)C2)C1 (stereo partly drawn) [Example 311, N-((aR)-6-((3-carbamoylpyridin-2-yl)oxy)spiro[3.3]heptan-2-yl)pyrazolo[1,5-a]pyridine-3-carboxamide] | 50 to 250 nM
14 | NC(=O)c1cccnc1O[C@H]1CC2(C[C@H](NC(=O)c3cnn4cc(OC(F)F)ccc34)C2)C1 (stereo partly drawn) [Example 312, N-((aR)-6-((3-carbamoylpyridin-2-yl)oxy)spiro[3.3]heptan-2-yl)-6-(difluoromethoxy)pyrazolo[1,5-a]pyridine-3-carboxamide] | 5 to 50 nM

Continued, values first:

Row | IC50 | Compound
15 | 5 to 50 nM | CC(C)(O)COc1ccc2c(C(=O)NC3CC4(C3)CC(Oc3cc(-c5ccc(S(C)(=O)=O)cc5)ccc3C(N)=O)C4)cnn2c1 (stereo not drawn) [Example 286, N-(6-((4-carbamoyl-4′-(methylsulfonyl)-[1,1′-biphenyl]-3-yl)oxy)spiro[3.3]heptan-2-yl)-6-(2-hydroxy-2-methylpropoxy)pyrazolo[1,5-a]pyridine-3-carboxamide]
16 | 5 to 50 nM | CNC(=O)c1cccc(-c2ccc(C(N)=O)c(OC3CC4(CC(NC(=O)c5cnn6cc(OCC(C)(C)O)ccc56)C4)C3)c2)c1 (stereo not drawn) [Example 287, 3′-((6-(6-(2-hydroxy-2-methylpropoxy)pyrazolo[1,5-a]pyridine-3-carboxamido)spiro[3.3]heptan-2-yl)oxy)-N3-methyl-[1,1′-biphenyl]-3,4′-dicarboxamide]
17 | 5 to 50 nM | CC(C)(O)COc1ccc2c(C(=O)NC3CC4(C3)CC(Oc3cc(-c5cccc(OCCCN)c5)ccc3C(N)=O)C4)cnn2c1 (stereo not drawn) [Example 288, N-(6-((3′-(3-aminopropoxy)-4-carbamoyl-[1,1′-biphenyl]-3-yl)oxy)spiro[3.3]heptan-2-yl)-6-(2-hydroxy-2-methylpropoxy)pyrazolo[1,5-a]pyridine-3-carboxamide]
18 | < 5 nM | CC(C)(O)COc1ccc2c(C(=O)NC3CC4(C3)CC(Oc3cc(-c5cccc(C(N)=O)c5)ccc3C(N)=O)C4)cnn2c1 (stereo not drawn) [Example 289, 3′-((6-(6-(2-hydroxy-2-methylpropoxy)pyrazolo[1,5-a]pyridine-3-carboxamido)spiro[3.3]heptan-2-yl)oxy)-[1,1′-biphenyl]-3,4′-dicarboxamide]
19 | < 5 nM | CC(C)(O)COc1ccc2c(C(=O)NC3CC4(C3)CC(Oc3cc(-c5ccc(F)c(C(N)=O)c5)ccc3C(N)=O)C4)cnn2c1 (stereo not drawn) [Example 292, 4-fluoro-3′-((6-(6-(2-hydroxy-2-methylpropoxy)pyrazolo[1,5-a]pyridine-3-carboxamido)spiro[3.3]heptan-2-yl)oxy)-[1,1′-biphenyl]-3,4′-dicarboxamide]
20 | < 5 nM | CC(C)(O)COc1ccc2c(C(=O)NC3CC4(C3)CC(Oc3cc(-c5cccc(S(=O)(=O)NCCO)c5)ccc3C(N)=O)C4)cnn2c1 (stereo not drawn) [Example 297, N-(6-((4-carbamoyl-3′-(N-(2-hydroxyethyl)sulfamoyl)-[1,1′-biphenyl]-3-yl)oxy)spiro[3.3]heptan-2-yl)-6-(2-hydroxy-2-methylpropoxy)pyrazolo[1,5-a]pyridine-3-carboxamide]
21 | < 5 nM | CC(C)(O)COc1ccc2c(C(=O)NC3CC4(C3)CC(Oc3cc(-c5cccc(S(N)(=O)=O)c5)ccc3C(N)=O)C4)cnn2c1 (stereo not drawn) [Example 298, N-(6-((4-carbamoyl-3′-sulfamoyl-[1,1′-biphenyl]-3-yl)oxy)spiro[3.3]heptan-2-yl)-6-(2-hydroxy-2-methylpropoxy)pyrazolo[1,5-a]pyridine-3-carboxamide]
22 | < 5 nM | CC(C)(O)COc1ccc2c(C(=O)NC3CC4(C3)CC(Oc3cc(CCCN)ccc3C(N)=O)C4)cnn2c1 (stereo not drawn) [Example 300, N-(6-(5-(3-aminopropyl)-2-carbamoylphenoxy)spiro[3.3]heptan-2-yl)-6-(2-hydroxy-2-methylpropoxy)pyrazolo[1,5-a]pyridine-3-carboxamide]
23 | < 5 nM | CC(C)(O)COc1ccc2c(C(=O)N[C@H]3CC4(C3)C[C@H](Oc3cc(Br)ccc3C(N)=O)C4)cnn2c1 (stereo partly drawn) [Example 302, N-((aR)-6-(5-bromo-2-carbamoylphenoxy)spiro[3.3]heptan-2-yl)-6-(2-hydroxy-2-methylpropoxy)pyrazolo[1,5-a]pyridine-3-carboxamide]
24 | < 5 nM | CC(C)(O)COc1ccc2c(C(=O)NC3CC4(C3)CC(Oc3cc(CCCCN)ccc3C(N)=O)C4)cnn2c1 (stereo not drawn) [Example 305, N-(6-(5-(4-aminobutyl)-2-carbamoylphenoxy)spiro[3.3]heptan-2-yl)-6-(2-hydroxy-2-methylpropoxy)pyrazolo[1,5-a]pyridine-3-carboxamide]
25 | < 5 nM | CC(F)(F)COc1ccc2c(C(=O)N[C@H]3CC4(C3)C[C@H](Oc3ncccc3C(N)=O)C4)cnn2c1 (stereo partly drawn) [Example 308, N-((aR)-6-((3-carbamoylpyridin-2-yl)oxy)spiro[3.3]heptan-2-yl)-6-(2,2-difluoropropoxy)pyrazolo[1,5-a]pyridine-3-carboxamide]
26 | < 5 nM | CC(F)(F)COc1ccc2c(C(=O)N[C@H]3CC4(C3)C[C@H](Oc3ncccc3C(N)=O)C4)cnn2c1C1CC1 (stereo partly drawn) [Example 309, N-((aR)-6-((3-carbamoylpyridin-2-yl)oxy)spiro[3.3]heptan-2-yl)-7-cyclopropyl-6-(2,2-difluoropropoxy)pyrazolo[1,5-a]pyridine-3-carboxamide]
27 | < 5 nM | CC(F)(F)COc1ccc2c(C(=O)N[C@H]3CC4(C3)C[C@H](Oc3ncccc3C(N)=O)C4)cnn2c1-c1cn[nH]c1 (stereo partly drawn) [Example 310, N-((aR)-6-((3-carbamoylpyridin-2-yl)oxy)spiro[3.3]heptan-2-yl)-6-(2,2-difluoropropoxy)-7-(1H-pyrazol-4-yl)pyrazolo[1,5-a]pyridine-3-carboxamide]

From US10829501B2 (BRISTOL-MYERS SQUIBB COMPANY, priority 2016, dated 2020)
